Tests used:
[1] = system: PBMC; assay: IL-2 induced proliferation of PBMC with albumin peptides in coated and uncoated tissue culture plates; type: cell-based, human
Procedure: A mixture of 1 mg/ml IgG in a solution of 9 mg/ml HSA in RPMI (HSA/IgG) was also prepared. 200 μl of HSA or HSA/IgG were then added to each well of the plate. The plates were incubated at 4° C. for 30 minutes after which the wells were washed twice with 200 μl of RPMI1640. The coated plates were used immediately. […] PBMC, isolated from healthy individuals, were diluted in RPMI/2% HSA and peptides were added directly to the cell suspension at a concentration of 10 μg/ml.

[2] = target: T1, β2-integrin LFA-1 (CD11a) (Homo sapiens, UniProt P20701); assay: Immunocytochemical staining of PBMC and THP-1 with anti-integrin (CD11a) antibody with or without albumin peptides; type: binding; details: mononuclear blood cells
T1 construct: endogenous in cells; host or cells: human PBMC (healthy controls, cancer patients) and THP-1 monocytic cell line (ATCC)
T1 sequence (P20701 26-1170): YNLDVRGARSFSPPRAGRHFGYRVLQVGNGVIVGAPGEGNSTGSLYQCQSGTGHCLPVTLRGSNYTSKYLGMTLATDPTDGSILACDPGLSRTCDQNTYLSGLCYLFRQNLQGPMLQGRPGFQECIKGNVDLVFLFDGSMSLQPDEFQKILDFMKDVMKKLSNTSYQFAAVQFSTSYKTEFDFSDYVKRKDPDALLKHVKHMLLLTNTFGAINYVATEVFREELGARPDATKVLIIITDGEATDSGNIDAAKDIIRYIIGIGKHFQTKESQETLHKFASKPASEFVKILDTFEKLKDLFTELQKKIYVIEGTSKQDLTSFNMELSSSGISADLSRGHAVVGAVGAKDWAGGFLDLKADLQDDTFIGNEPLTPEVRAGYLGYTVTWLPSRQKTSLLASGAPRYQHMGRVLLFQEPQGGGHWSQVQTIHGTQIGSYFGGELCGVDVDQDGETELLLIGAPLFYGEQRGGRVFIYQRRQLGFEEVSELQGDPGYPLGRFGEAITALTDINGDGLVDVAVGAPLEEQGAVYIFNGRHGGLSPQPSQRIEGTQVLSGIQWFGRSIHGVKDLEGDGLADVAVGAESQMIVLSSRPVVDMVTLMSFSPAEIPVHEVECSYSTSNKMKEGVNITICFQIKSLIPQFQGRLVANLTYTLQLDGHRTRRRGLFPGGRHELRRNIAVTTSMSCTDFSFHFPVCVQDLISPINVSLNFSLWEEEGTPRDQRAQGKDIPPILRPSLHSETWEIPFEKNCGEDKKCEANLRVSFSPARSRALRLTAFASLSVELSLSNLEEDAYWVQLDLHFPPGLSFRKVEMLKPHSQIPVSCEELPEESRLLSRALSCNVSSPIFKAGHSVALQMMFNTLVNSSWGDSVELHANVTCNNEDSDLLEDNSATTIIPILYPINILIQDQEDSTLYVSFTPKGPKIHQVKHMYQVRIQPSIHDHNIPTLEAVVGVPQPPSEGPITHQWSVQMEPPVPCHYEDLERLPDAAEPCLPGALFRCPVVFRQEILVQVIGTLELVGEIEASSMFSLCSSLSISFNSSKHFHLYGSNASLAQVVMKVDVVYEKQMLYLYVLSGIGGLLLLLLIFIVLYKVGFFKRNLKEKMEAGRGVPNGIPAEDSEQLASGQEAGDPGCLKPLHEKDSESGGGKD
T1 sequence (P05107 23-769 partner): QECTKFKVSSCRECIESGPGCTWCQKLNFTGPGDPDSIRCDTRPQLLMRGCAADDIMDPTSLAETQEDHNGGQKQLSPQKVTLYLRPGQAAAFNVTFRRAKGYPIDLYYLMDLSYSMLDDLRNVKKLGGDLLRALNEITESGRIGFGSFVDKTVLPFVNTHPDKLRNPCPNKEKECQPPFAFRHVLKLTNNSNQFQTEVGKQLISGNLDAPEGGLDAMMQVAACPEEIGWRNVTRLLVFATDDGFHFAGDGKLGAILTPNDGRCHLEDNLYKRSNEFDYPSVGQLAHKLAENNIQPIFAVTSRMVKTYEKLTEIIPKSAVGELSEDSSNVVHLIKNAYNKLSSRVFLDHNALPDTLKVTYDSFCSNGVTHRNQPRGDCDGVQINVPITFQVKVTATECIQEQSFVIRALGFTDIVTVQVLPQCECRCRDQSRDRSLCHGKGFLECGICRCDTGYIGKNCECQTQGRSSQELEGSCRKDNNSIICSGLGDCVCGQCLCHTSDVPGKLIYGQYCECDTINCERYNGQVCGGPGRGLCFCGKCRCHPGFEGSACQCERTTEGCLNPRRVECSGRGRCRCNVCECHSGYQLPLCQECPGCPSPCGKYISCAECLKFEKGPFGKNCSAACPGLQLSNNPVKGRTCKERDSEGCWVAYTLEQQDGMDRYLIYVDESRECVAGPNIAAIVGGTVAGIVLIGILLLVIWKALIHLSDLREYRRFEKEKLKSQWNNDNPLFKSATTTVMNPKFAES
Procedure: Cytospin preparations of mononuclear blood cells from healthy controls, cancer patients and a monocytic cell line, THP-1, were prepared (as described under materials and methods), dried and stored at −70° C. In the immunocytological staining, unspecific staining was blocked by incubation with 10% human AB serum. Some of the slides were preincubated for 60 minutes with albumin peptides at a concentration of 40 μg/ml, added to this 10% AB serum, as indicated in the FIG. 8 A-F. The staining procedure was then continued as described in material and methods. The staining intensity of slides stained with and without preincubation with the peptides was recorded semi quantitatively using a standard light microscope.
PBMC were separated as described above. Cultured THP-1 cells (obtained from the American Type Culture Collection through LGL Nordic AB, Sweden) were carefully washed and suspended in RPMI1640. PBMC and THP-1 were immediately spun down on pre-cleaned microscope slides in a Shandon Cytospin (Shandon Scientific Ltd, UK) at 1000 RPM for 7 min at 2.5 or 5×10^4 cells per slide. The slides were left to dry at room temperature over night, after which they were wrapped in parafilm and stored at −70° C. Immediately before use, the cytospins were thawed and fixed with acetone for 5 min at room temperature. The cytospins were first blocked with 10% normal human AB-serum with and without albumin peptides (40 ␣g/ml) for 1 h before staining. Primary antibody, consisting of a monoclonal mouse anti-human CD11a (clone HI111, BD Biosciences) diluted in Tris buffered saline (TBS, pH 7.6) at 5 μg/ml (THP-1) or 1 µg/ml (PBMC), was added. The slides were incubated for 30 min and then washed in TBS followed by Envision-Alkaline Phosphatase (Dako Norden A/S, Denmark) for 30 min. After additional washing in TBS, the slides were incubated in alkaline phoshatase substrate consisting of Fast Red TR salt (Sigma), naphtol AS-MX (Sigma) and 5 mM levamisol (Sigma) to block endogenous alkaline phosphatase activity, for 20 min followed by washing in TBS. They were then counterstained in Mayer's haematoxylin for 1 minute and mounted in Glycergel (Dako Norden NS). Monoclonal mouse IgG1 against an irrelevant antigen (Aspergillus niger glukosoxidase, Dako Norden NS) was used as a negative control. All incubations were performed at room temperature in a moist chamber.
FIG. 24. Inhibition of the binding of anti-LFA-1, mab HI111, to mononuclear blood cells by 3028 peptide and fragments 3325 and 3218. A standard immunohistochemical staining procedure using acetone fixation, 10% human AB-serum for blocking, incubation with HI 111 and a secondary antibody (Ultravision, an alkaline phosphate conjugated polymer attached to Fab-fragments of goat anti-mouse Ig), followed by development with Fast Red. The slides were then mounted in Glycergel. Preincubation with peptides added to the AB serum was as follows: A. No peptide added, B. peptide 3028, C. The C-terminal part (3218), and D. The N-terminal part (3325).

[3] = system: PBMC; assay: IL-2 induced proliferation of PBMC in the presence of affinity purified rabbit anti-3028; type: cell-based, human; details: small amount of peptide 3028 having no inhibitory activity per se
Procedure: Serum containing culture medium (100 ul/well) was pre-incubated with 20 ug/ml of rabbit antibodies for 30 min at room temperature before the addition of 100 ul PBMC suspension to the culture wells.

[4] = system: PBMC; assay: LPS-induced IL-6 production by PBMC, effect of peptides; type: cell-based, human; details: three cancer patients

**Q.** With VFDEFKPLVEEPQNLIK [peptide 3028] as the sequence, how does the “inhibitory effect on IL-2 induced proliferation under modulation of the Fc-receptor cross-linking” value ([1]; HSA/IgG coated plates) read?
**A.** completely reversed

**Q.** And the “effect on IL-2 induced proliferation” value ([1]; PBMC from healthy individuals, peptide 5 μg/ml final, 7 days)?
**A.** highly inhibitory

**Q.** What about the “effect on binding of the LFA-1 antibody (HI 111) to LFA-1” value [2] of the same sequence?
**A.** Both inhibition (FIG. 24) and enhancement of the binding

**Q.** And the “effect on the stimulatory effect of anti-3028 antibodies” value [3]?
**A.** neutralized

**Q.** And the “effect on LPS induced IL-6 production” value [4]?
**A.** essentially no effects

Source: US9796777B2, “Methods of treating malignant tumors” (Canimguide Therapeutics AB, priority 2007, dated 2017)
